Measured values published in article PMC10879537 (Nature Communications, 2024).

What was measured:
GX_P2V = assay: microbe, parasite or virus in culture; type: cell-based, Guangxi pangolin-CoV (GX_P2V); details: for inhibition at 0.193125 µM / inhibition at 0.39 µM / inhibition at 0.49485 µM / inhibition at 0.79588 µM / inhibition at 0.78 µM / inhibition at 1.09691 µM / inhibition at 1.69897 µM / inhibition at 1.39794 µM: Vero C1008, 48 h, read-out: Percentage of Inhibition (%)
Vero E6 cells = assay: cells; details: Chlorocebus sabaeus, Vero C1008, 48 h, read-out: Cytoxicity (%)

Row | Compound | inhibition at 0.193125 µM (GX_P2V) | inhibition at 0.39 µM (GX_P2V) | inhibition at 0.49485 µM (GX_P2V) | inhibition at 0.79588 µM (GX_P2V) | cytotoxicity at 0.193125 µM (Vero E6 cells) | cytotoxicity at 0.39 µM (Vero E6 cells) | cytotoxicity at 0.49485 µM (Vero E6 cells) | cytotoxicity at 0.78 µM (Vero E6 cells) | cytotoxicity at 0.79588 µM (Vero E6 cells) | inhibition at 0.78 µM (GX_P2V) | inhibition at 1.09691 µM (GX_P2V) | also measured
1 | COc1cc2c(cc1O)[C@@H](Cc1ccc(O)cc1)N(C)CC2 [(R)-N-Methylcolaurine] | 25.6% | 94.8% | 55.7% | 56.1% | 9.96% | 22.3% | 20.1% | 13.4% | 9.7% |  |  | cytotoxicity at 1.39794 µM (Vero E6 cells): 23.2%
2 | COc1cc2c(cc1O)[C@H](Cc1ccc(O)cc1)N(C)CC2 [(S)-N-Methylcolaurine] | 17.4% |  |  | 91.1% | 6.97% |  |  | 47% |  | 15.1% | 52.6% | inhibition at 1.69897 µM (GX_P2V): 20.9%; cytotoxicity at 1.39794 µM (Vero E6 cells): 2.6%
3 | COc1cc2c(cc1O)[C@@H]1Cc3ccc(OC)c(O)c3CN1CC2 [(S)-Scoulerine] |  |  | 24.5% |  | 25% | 27.5% | 25.7% |  |  |  |  | cytotoxicity at 1.09691 µM (Vero E6 cells): 33.9%; cytotoxicity at 1.69897 µM (Vero E6 cells): 34%
4 | COc1ccc2c(c1O)-c1c(O)c(OC)cc3c1[C@H](C2)N(C)CC3 [(S)-corytuberine] |  | 54.6% |  |  |  |  |  |  |  | 42.8% |  | 
5 | COc1cc2c(cc1O)-c1cc3ccc(OC)c(OC)c3c[n+]1CC2 [Columbamine] |  |  |  |  |  |  |  |  | 34.5% |  | 49.9% | inhibition at 1.39794 µM (GX_P2V): 66.7%
6 | NCCc1ccc(O)c(O)c1 [Compound 4, dopamine, reference compound] | 46.7% | 33.8% | 92.6% | 41.1% |  |  | 23.1% | 31.1% |  |  |  | Antiviral activity (bioactivity) in dose-response analysis (GX_P2V): do not; cytotoxicity at 1.69897 µM (Vero E6 cells): 10.6%
7 | Oc1ccc(C[C@@H]2NCCc3cc(O)c(O)cc32)cc1 [Compound 6, norcoclaurine] |  | 55.7% |  | 68.5% | 41.2% | 28.8% | 9.98% |  | 52.9% | 83.5% |  | cytotoxicity at 1.09691 µM (Vero E6 cells): 10.9%
8 | COc1cc2c(cc1O)C(Cc1ccc(O)cc1)NCC2 (stereo not shown) [Compound 11, coclaurine] |  |  | 33.2% |  | 8.1% |  |  |  |  |  |  | inhibition at 1.69897 µM (GX_P2V): 28.7%
9 | COc1ccc(C[C@H]2c3cc(O)c(OC)cc3CCN2C)cc1O [Compound 12, reticuline] |  | 81.7% | 27.4% | 65.7% |  |  |  |  |  | 60% | 49.6% | inhibition at 1.39794 µM (GX_P2V): 28.1%
10 | COc1cc2c(cc1O)[C@@H](Cc1ccc(Oc3cc(C[C@@H]4c5cc(O)c(OC)cc5CCN4C)ccc3O)cc1)N(C)CC2 [Compound 32, guatteguamerine] |  |  |  |  |  |  |  |  |  |  |  | Antiviral activity (bioactivity) in dose-response analysis (GX_P2V): lacked antiviral activity
